Experimental data: patent publication US20230140290A1, “SALICYLAMIDE DERIVATIVES AND RELATED METHODS OF MAKING” (THE BOARD OF REGENTS OF THE UNIVERSITY OF TEXAS SY, priority 2020, published 2023)

Key:
HAdV5-GFP [1] = test: Plaque assay (inhibition of HAdV plaque formation); assay type: cell-based, HAdV-5; conditions: for Selectivity index (SI): ratio of CC50 to IC50 in plaque assay; for inhibition at 10 µM: read-out: Plaque Assay (%) Inhibition (10 μM); for IC50: read-out: Plaque Assay IC50 (μM), HAdV5-GFP, low MOI, 293β5 cell line
Procedure, shortened: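 Compounds were present in the post-infection mixture at 10 μM, or at 10 to 0.3 μM for dose-response. Infection used low MOI HAdV5-GFP (0.06 vp/cell) on 80-90% confluent cells, 2 h rocking at 37° C, then a PBS wash.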

HAdV5-GFP [2] = test: Entry assay (HAdV5-mediated GFP expression); assay type: cell-based, HAdV-5; conditions: for inhibition at 50 µM: A549, 48 h, read-out: (%) Inhibition Entry Assay (50 μM); for IC50: A549, read-out: IC50 Entry Assay (μM), HAdV5-GFP, high MOI, A549 cell line
Method: Entry Assay. The anti-HAdV activity was measured in an entry assay using human A549 epithelial cells (3×10^5 cells/well in coming black wall, clear bottom 96-well plates) infected with HAdV5-GFP (2000 vp/cell) in the presence 50 μM of the candidates and in a dose-response assay. A standard infection curve was generated in parallel by infecting cells in the absence of compounds using serial 2-fold dilutions of virus. All reactions were done in triplicate. Cells, virus, and drugs were incubated for 48 h at 37° C. and 5% CO2.

wild-type HAdV5 = test: Nuclear-associated HAdV genomes (real-time PCR); assay type: cell-based, HAdV-5
Method: (§1) Nuclear-Associated HAdV Genomes. The nuclear delivery of HAdV genomes was assessed by real-time PCR following nuclear isolation from infected cells. […] Forty-five minutes after infection, A549 cells were trypsinized and collected and then washed twice with PBS. Then, cytoplasmic and nuclear fractions were separated using a hypotonic buffer solution and NP-40 detergent. The cell pellet was resuspended in 500 μL of 1×hypotonic buffer (20 mM Tris-HCl pH 7.4, 10 mM NaCl, 3 mM MgCl2) and incubated for 15 min at 4° C. Then, 25 μL of NP-40 was added and the samples were vortexed. The homogenates were centrifuged for 10 min at 835 g at 4° C. Following the removal of the cytoplasmic fraction (supernatant), HAdV DNA was isolated from the nuclear fraction (pellet) and from the cytoplasmic fraction using the QIAamp DNA Mini Kit (QIAGEN, Valencia, Calif.).
as §1, with “E.Z.N.A.® Tissue” for “QIAamp”, “DNA” for “DNA Mini”, “(Omega Bio-tek, Norcross, Ga.).” for “(QIAGEN, Valencia, Calif.).”

A549 cells = test: Cytotoxicity assay (AlamarBlue); conditions: read-out: CC50 (μM), cytotoxic concentration 50%; A549 cell line, 48 h
Method: Cytotoxicity Assay. The cytotoxicity of the compounds was analyzed by commercial kit AlamarBlue® (Invitrogen, Ref. DAL1025). A549 cells at a density of 5×10^3 cells per well in 96-well plates were seeded. […] Cells were then incubated at 37° C. for 48 h following the kit protocol. The cytotoxic concentration 50 (CC50) value was obtained using the statistical package GraphPad Prism. This assay was performed in duplicate.

[3] = FIG. 3, 45 min post infection, concentrations by CC50 (2-50 μM)

Row | SMILES | Selectivity index (SI) (HAdV5-GFP [1]) | inhibition at 10 µM (HAdV5-GFP [1]) | IC50 (HAdV5-GFP [1]) | inhibition at 50 µM (HAdV5-GFP [2]) | IC50 (HAdV5-GFP [2]) | amount of nuclear-associated HAdV genomes versus DMSO (wild-type HAdV5; [3]) | CC50 (A549 cells) | amount of nuclear-associated HAdV genomes versus DMSO (wild-type HAdV5; FIG. 5A, 45 min post-infection, 10-fold plaque IC50)
1 | CC[C@@H](C)[C@H](NC(=O)c1cc(Cl)ccc1O)C(=O)Nc1ccc([N+](=O)[O-])cc1Cl [Compound 62, 5-Chloro-N-((2S,3R)-1-((2-chloro-4-nitrophenyl)amino)-3-methyl-1-oxopentan-2-yl)-2-hydroxybenzamide] | 127.6 | 99 ± 0.3% | 0.16 µM | 98.2 ± 0.5% | 2.5 ± 0.22 µM | significant (p≤0.0001) reductions | 20.2 µM | –
2 | CC(C)(Cc1ccccc1)ON(c1ccc(NC(=O)c2cc(Cl)ccc2O)c(Cl)c1)C(C)(C)Cc1ccccc1 [Compound 115, 5-Chloro-N-(2-chloro-4-((2-methyl-1-phenylpropan-2-yl)((2-methyl-1-phenylpropan-2-yl)oxy)amino)phenyl)-2-hydroxybenzamide] | 129.7 | 100% | 1.27 µM | 59.1% | 34.1 µM | – | 165 µM | no significant differences
3 | O=C(Nc1ccc([N+](=O)[O-])cc1)c1cc(Cl)ccc1O [Compound 13, 5-Chloro-2-hydroxy-N-(4-nitrophenyl)benzamide] | – | 98 ± 2.8% | 0.11 µM | 100% | – | significant (p≤0.0001) reductions | – | –
4 | CC(C)[C@H](NC(=O)c1cc(Cl)ccc1NS(C)(=O)=O)C(=O)Nc1ccc([N+](=O)[O-])cc1Cl [Compound 70, (S)-5-Chloro-N-(1-((2-chloro-4-nitrophenyl)amino)-3-methyl-1-oxobutan-2-yl)-2-(methylsulfonamido)benzamide] | 256.0 | 99.1 ± 1.2% | 0.68 µM | 99.1 ± 1.2% | 1.38 ± 0.1 µM | significant (p≤0.0001) reductions | 174 µM | –
5 | Cc1ccc(CNC(=O)c2cc(Cl)ccc2O)cc1 [Compound 44, 5-Chloro-2-hydroxy-N-(4-methylbenzyl)benzamide] | 10.8 | 96.6 ± 4% | 8.12 ± 2.16 µM | – | – | – | 87.7 ± 4.7 µM | –
6 | O=C(Nc1ccc(NCc2ccc3cn[nH]c3c2)cc1Cl)c1cc(Cl)ccc1O [Compound 114, N-(4-(((1H-Indazol-6-yl)methyl)amino)-2-chlorophenyl)-5-chloro-2-hydroxybenzamide] | 9.7 | 98 ± 0.7% | 4.65 µM | – | – | – | 45.3 ± 0.4 µM | –
7 | O=C(NCc1ccc(NC2CCCC2)cc1Cl)c1cc(Cl)ccc1O [Compound 145, 5-Chloro-N-(2-chloro-4-(cyclopentylamino)benzyl)-2-hydroxybenzamide] | 3.6 | 98.5 ± 0.7% | 7.97 ± 0.43 µM | – | – | – | 28.3 ± 2.5 µM | –
8 | CCCCCCC(C)Nc1ccc(NC(=O)c2cc(Cl)ccc2O)c(Cl)c1 (stereo not shown) [Compound 83, 5-Chloro-N-(2-chloro-4-(octan-2-ylamino)phenyl)-2-hydroxybenzamide] | 73.4 | 100% | 0.32 µM | – | – | – | 23.5 ± 3 µM | –
9 | O=C(Nc1ccc(NC2CCCC2)cc1)c1cc(Cl)ccc1O [Compound 141, 5-Chloro-N-(4-(cyclopentylamino)phenyl)-2-hydroxybenzamide] | 3.9 | 99.8 ± 0.3% | 2.6 µM | – | – | – | 10 ± 2.2 µM | –
10 | O=C(Nc1cc(NC2CCCC2)ccc1F)c1cc(Cl)ccc1O [Compound 144, 5-Chloro-N-(5-(cyclopentylamino)-2-fluorophenyl)-2-hydroxybenzamide] | 32.8 | 99.8 ± 0.4% | 1.34 ± 0.05 µM | – | – | – | 44 ± 12.8 µM | –
11 | O=C(Nc1ccc(NCc2ccc(Br)cc2)cc1Cl)c1cc(Cl)ccc1O [Compound 97, N-(4-((4-Bromobenzyl)amino)-2-chlorophenyl)-5-chloro-2-hydroxybenzamide] | 22.2 | 100% | 1.84 ± 0.1 µM | – | – | – | 40.9 ± 2.2 µM | –
12 | O=C(Nc1ccc(NCC2CCCC2)cc1Cl)c1cc(Cl)ccc1O [Compound 86, 5-Chloro-N-(2-chloro-4-((cyclopentylmethyl)amino)phenyl)-2-hydroxybenzamide] | 17.3 | 100% | 1.24 µM | – | – | – | 21.5 µM | –
13 | O=C(Nc1ccc(F)c(F)c1)c1cc(Cl)ccc1O [Compound 15, 5-Chloro-N-(3,4-difluorophenyl)-2-hydroxybenzamide] | 29.6 | 100% | 0.27 µM | – | – | – | 8 µM | –
14 | O=C(NCCc1ccc(F)cc1)c1cc(Cl)ccc1O [Compound 52, 5-Chloro-N-(4-fluorophenethyl)-2-hydroxybenzamide] | 39.1 | 98.7 ± 1.8% | 3.94 µM | – | – | – | 154 µM | –
15 | C[C@@H](NC(=O)c1cc(Cl)ccc1O)c1ccccc1 [Compound 46, (R)-5-Chloro-2-hydroxy-N-(1-phenylethyl)benzamide] | – | 100% | – | – | – | – | 84.6 ± 20.5 µM | –
16 | O=C(Nc1ccc(NC2CCCC2)cc1F)c1cc(Cl)ccc1O [Compound 142, 5-Chloro-N-(4-(cyclopentylamino)-2-fluorophenyl)-2-hydroxybenzamide] | 49.1 | 98.7 ± 0.4% | 1.04 µM | – | – | – | 51 ± 13.3 µM | –
17 | O=C(Nc1ccc(NCc2cccc(C(F)(F)F)c2)cc1Cl)c1cc(Cl)ccc1O [Compound 99, 5-Chloro-N-(2-chloro-4-((3-(trifluoromethyl)benzyl)amino)phenyl)-2-hydroxybenzamide] | 15.2 | 100% | 0.88 ± 0.4 µM | – | – | – | 13.3 ± 6.9 µM | –
18 | CCCCCCCCC(C)Nc1ccc(NC(=O)c2cc(Cl)ccc2O)c(Cl)c1 (stereo not shown) [Compound 84, 5-Chloro-N-(2-chloro-4-(decan-2-ylamino)phenyl)-2-hydroxybenzamide] | 18.1 | 100% | 1.21 ± 0.02 µM | – | – | – | 21.9 ± 8.9 µM | –
